Test results taken from ChEMBL document CHEMBL5104233, “Advanced approaches of developing targeted covalent drugs” (RSC Med Chem, 2022).

How the values were obtained:
[1] = biological target: Human immunodeficiency virus type 1 reverse transcriptase (Human immunodeficiency virus 1, UniProt Q72547, Y181C); test: Inhibition of HIV-1 reverse transcriptase Y181C mutant
[2] = test system: CD4+ve Th; test: Inhibition of Th1 cell differentiation in human peripheral blood CD4+ve Th cells assessed as decrease in IFNgamma production measured after 5 days; type: functional, cell-based; details: 120 h
[3] = biological target: T1, Cyclin-dependent kinase 2 (Homo sapiens, UniProt P24941); test: Inhibition of CDK2 (unknown origin)
[4] = biological target: T1, Cyclin-dependent kinase 2; test: Inhibition of pan-CDK2 (unknown origin) relative to control; details: concentration not given here
[5] = test system: Jurkat; test: Antiproliferative activity against human Jurkat cells assessed as inhibition of cell growth incubated for 72 hrs by Celltiter Glo assay; type: functional, cell-based
[6] = biological target: CDK7/Cyclin H/MNAT1 (Homo sapiens, UniProt P50613); test: Inhibition of CDK7/Cyclin H/MAT1 (unknown origin) in leukemia cells; type: cell-based, Leukemia cell
Chain of CDK7/Cyclin H/MNAT1 (P51946 whole entry): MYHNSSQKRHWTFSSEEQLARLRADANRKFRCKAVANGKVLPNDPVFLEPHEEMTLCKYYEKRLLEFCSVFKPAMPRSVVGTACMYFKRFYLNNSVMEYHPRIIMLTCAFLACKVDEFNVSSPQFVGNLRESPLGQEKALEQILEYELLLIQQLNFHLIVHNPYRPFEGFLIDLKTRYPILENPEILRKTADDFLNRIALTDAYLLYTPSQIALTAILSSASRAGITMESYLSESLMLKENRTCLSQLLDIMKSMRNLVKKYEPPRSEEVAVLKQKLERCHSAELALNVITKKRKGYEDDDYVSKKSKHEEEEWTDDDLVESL
Chain of CDK7/Cyclin H/MNAT1 (P50613 whole entry): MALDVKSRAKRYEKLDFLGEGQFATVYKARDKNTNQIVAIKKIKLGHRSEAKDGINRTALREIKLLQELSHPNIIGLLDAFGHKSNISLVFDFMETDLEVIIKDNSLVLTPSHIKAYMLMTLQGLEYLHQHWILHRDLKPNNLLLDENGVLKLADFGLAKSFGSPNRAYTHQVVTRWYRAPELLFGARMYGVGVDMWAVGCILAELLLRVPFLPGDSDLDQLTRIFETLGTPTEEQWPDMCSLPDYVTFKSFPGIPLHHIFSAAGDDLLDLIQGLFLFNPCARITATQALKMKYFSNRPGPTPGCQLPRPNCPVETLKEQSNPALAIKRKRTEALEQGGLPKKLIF
Chain of CDK7/Cyclin H/MNAT1 (P51948 whole entry, further chain): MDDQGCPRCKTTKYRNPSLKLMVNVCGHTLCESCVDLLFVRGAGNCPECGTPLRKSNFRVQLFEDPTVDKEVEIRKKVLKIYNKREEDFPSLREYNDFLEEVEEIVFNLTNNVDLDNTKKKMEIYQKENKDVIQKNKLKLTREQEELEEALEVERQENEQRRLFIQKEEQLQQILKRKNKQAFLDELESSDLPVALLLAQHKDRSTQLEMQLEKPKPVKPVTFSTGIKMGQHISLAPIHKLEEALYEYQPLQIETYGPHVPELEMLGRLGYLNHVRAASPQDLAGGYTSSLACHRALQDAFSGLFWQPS

For Cc1c(Oc2ccccc2OCCn2ccc(=O)[nH]c2=O)cc(N(C)C(=O)CCl)c2ccc(C#N)cc12, the IC50 [1] was 480 nM.
C=CC(=O)N1C[C@H](Nc2ncnc3[nH]ccc23)CC[C@@H]1C [RITLECITINIB] was tested, and the IC50 [2] was 48 nM.
For C=CS(=O)(=O)c1ccc(Nc2nc(OCC3CCCCC3)c3nc[nH]c3n2)cc1, the IC50 [3] was 160 nM and the inhibition [4] was 50%.
Work on C=CC(=O)N(C)c1cc(Oc2ccccc2OCCn2ccc(=O)[nH]c2=O)c(C)c2cc(C#N)ccc12 yielded an IC50 [1] of 400 nM.
In the case of CN(C)C/C=C/C(=O)Nc1ccc(C(=O)N2CCC[C@H](Nc3ncc(Cl)c(-c4c[nH]c5ccccc45)n3)C2)cc1, the IC50 [5] is reported as 50 nM.
Work on C=C(F)C(=O)N1CCN(c2nc(OC[C@@H]3CCCN3C)nc3c2CCN(c2cccc4cccc(Cl)c24)C3)C[C@@H]1CC#N [ADAGRASIB] yielded an IC50 [6] of 1.3 nM.
